Experiment [1] addresses T1, PSMA (Homo sapiens, UniProt Q04609).
T1 construct: endogenous in cells; host or cells: LNCaP cells
Put plainly: In vitro PSMA competitive binding assay, LNCaP cells, [18F]DCFPyL radioligand. The settings on record: [18F]DCFPyL 0.1 nM, read-out: PSMA binding affinity (Ki). The procedure:
Inhibition constants (Ki) to PSMA were measured by in vitro competition binding assays using [^18F]DCFPyL as the radioligand. LNCaP cells which were plated onto a 24-well poly-D-lysine coated plate for 48 h (400,000/well). Growth medium was removed and replaced with HEPES buffered saline (50 mM HEPES, pH 7.5, 0.9% sodium chloride). After 1 h, [^18F]DCFPyL (0.1 nM) was added to each well (in triplicate) containing varied concentrations ([…]) of tested compounds The assay mixtures were incubated for 1 h at 37° C. with gentle agitation followed by two washes with cold HEPES buffered saline. A trypsin solution (0.25%, 400 μL) was then added to each well to harvest the cells. Radioactivity was measured by gamma counting and Ki values calculated using the ‘one site—fit Ki’ built-in model in Prism 8 (GraphPad).

The target in experiment [2] is T2, Human serum albumin (Homo sapiens, UniProt P02768).
T2 construct: purchased Sovicell
T2 sequence (P02768 25-609): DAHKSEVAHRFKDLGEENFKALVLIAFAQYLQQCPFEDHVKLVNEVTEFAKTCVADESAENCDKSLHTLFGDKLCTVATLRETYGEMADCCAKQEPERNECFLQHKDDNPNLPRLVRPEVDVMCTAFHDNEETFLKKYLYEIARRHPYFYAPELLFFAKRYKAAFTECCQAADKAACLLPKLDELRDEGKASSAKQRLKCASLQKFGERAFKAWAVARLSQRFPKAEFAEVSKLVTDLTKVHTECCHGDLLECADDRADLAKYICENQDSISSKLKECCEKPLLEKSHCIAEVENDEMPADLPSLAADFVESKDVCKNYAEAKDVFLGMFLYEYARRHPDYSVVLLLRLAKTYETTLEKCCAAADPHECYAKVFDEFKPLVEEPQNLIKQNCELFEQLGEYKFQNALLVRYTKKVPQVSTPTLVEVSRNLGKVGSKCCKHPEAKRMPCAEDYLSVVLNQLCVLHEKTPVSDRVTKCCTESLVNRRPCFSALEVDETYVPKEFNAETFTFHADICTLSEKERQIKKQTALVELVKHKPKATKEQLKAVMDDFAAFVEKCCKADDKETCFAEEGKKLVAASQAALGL
Put plainly: Human serum albumin binding assay (Transil HSA binding kit). The settings on record: read-out: Human albumin binding affinity (Kd). The procedure:
Human serum albumin binding assay was performed using Transil HSA binding kit (Sovicell) according to manufacturer's recommended procedures.

In general, Ki refers to the dissociation constant of the complex between target and ligand, obtained from inhibition or displacement. Usually Kd stands for the equilibrium constant for the complex coming apart.

*1 amine or outer side, *2 acyl side, *3 side chain or, on linkers, in order; H or OH if unused. Where a SMILES comes first, the peptide text is derived from it. [ ]: non-standard residue; d: D form. The star is where a group is joined. AadUreaLys(Nε) = O=C(O)CCC[C@H](NC(=O)N[C@@H](CCCCN*)C(=O)O)C(=O)O; X4 = O=C(N[C@@H](CCCCN*)C(=O)O)N[C@@H](C[C@@H](F)C(=O)O)C(=O)O; Butanoyl(4-(4-NO2Ph)) = O=C(CCCc1ccc([N+](=O)[O-])cc1)*; DOTA = O=C(O)CN1CCN(CC(=O)O)CCN(CC(=O)*)CCN(CC(=O)O)CC1; EuK = O=C(O)CC[C@H](NC(=O)N[C@@H](CCCCN*)C(=O)O)C(=O)O; Ala(9-anthryl) = N[C@@H](Cc1c2ccccc2cc2ccccc12)C(=O)O; Butanoyl(4-(4-MeO-phenyl)) = COc1ccc(CCCC(=O)*)cc1; X1 = O=C(C1CCC(CN[*:1])CC1)[*:2]; X3 = O=C(C1CCC(N[*:1])CC1)[*:2]

T1 sequence (Q04609 whole entry): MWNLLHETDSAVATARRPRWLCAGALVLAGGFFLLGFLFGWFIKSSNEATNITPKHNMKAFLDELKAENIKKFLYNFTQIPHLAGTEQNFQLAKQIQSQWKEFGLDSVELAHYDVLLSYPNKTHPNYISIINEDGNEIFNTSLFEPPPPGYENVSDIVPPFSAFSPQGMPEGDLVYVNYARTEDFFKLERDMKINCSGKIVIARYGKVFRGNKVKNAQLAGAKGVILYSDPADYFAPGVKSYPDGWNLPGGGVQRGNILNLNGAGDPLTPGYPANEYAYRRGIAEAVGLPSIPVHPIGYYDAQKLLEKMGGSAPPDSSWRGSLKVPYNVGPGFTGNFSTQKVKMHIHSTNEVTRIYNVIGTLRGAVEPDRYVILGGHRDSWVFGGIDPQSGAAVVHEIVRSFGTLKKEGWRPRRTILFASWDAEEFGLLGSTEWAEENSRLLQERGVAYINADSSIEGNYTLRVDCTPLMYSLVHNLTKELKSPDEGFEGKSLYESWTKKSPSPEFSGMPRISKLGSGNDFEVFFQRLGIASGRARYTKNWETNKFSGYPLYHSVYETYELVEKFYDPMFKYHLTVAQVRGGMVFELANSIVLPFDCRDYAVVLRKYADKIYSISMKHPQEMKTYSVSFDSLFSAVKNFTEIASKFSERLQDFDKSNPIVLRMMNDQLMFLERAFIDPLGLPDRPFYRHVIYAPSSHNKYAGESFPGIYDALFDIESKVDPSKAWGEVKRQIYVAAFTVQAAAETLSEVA

In the case of `COc1ccc(CCCC(=O)NCC(=O)N[C@@H](CCCCNC(=O)CN2CCN(CC(=O)O)CCN(CC(=O)O)CCN(CC(=O)O)CC2)C(=O)NCC(=O)NCC2CCC(C(=O)N[C@@H](Cc3c4ccccc4cc4ccccc34)C(=O)NCCCC[C@H](NC(=O)N[C@@H](C[C@@H](F)C(=O)O)C(=O)O)C(=O)O)CC2)cc1` (stereo partly shown) [CCZ02008] ({Butanoyl(4-(4-MeO-phenyl))}-GK(DOTA)G[X1][Ala(9-anthryl)]-X4), in experiment [1], the Ki amounted to 0.48 ± 0.1 nM.
As for `O=C(O)CCC[C@H](NC(=O)N[C@@H](CCCCNC(=O)[C@H](Cc1c2ccccc2cc2ccccc12)NC(=O)C1CCC(NC(=O)CN2CCN(CC(=O)O)CCN(CC(=O)O)CCN(CC(=O)O)CC2)CC1)C(=O)O)C(=O)O` (stereo partly shown) [CCZ02012], the Ki in experiment [1] is 1.67 nM.
Still for that read-out and setting: the result for `O=C(O)CCC[C@H](NC(=O)N[C@@H](CCCCNC(=O)[C@H](Cc1c2ccccc2cc2ccccc12)NC(=O)C1CCC(NC(=O)CN2CCN(CC(=O)O)CCN(CC(=O)O)CCN(CC(=O)O)CC2)CC1)C(=O)O)C(=O)O` (stereo partly shown) [CCZ02013] reads 1.53 ± 0.21 nM; that for `COc1ccc(CCCC(=O)NCC(=O)N[C@@H](CCCCNC(=O)CN2CCN(CC(=O)O)CCN(CC(=O)O)CCN(CC(=O)O)CC2)CC(=O)NCC2CCC(C(=O)N[C@@H](Cc3c4ccccc4cc4ccccc34)C(=O)NCCCC[C@H](NC(=O)N[C@@H](CCCC(=O)O)C(=O)O)C(=O)O)CC2)cc1` (stereo partly shown) [CCZ02015], 1.09 ± 0.3 nM.
On the same count and under the same terms, the result for `O=C(O)CCC[C@H](NC(=O)N[C@@H](CCCCNC(=O)[C@H](Cc1c2ccccc2cc2ccccc12)NC(=O)C1CCC(CNC(=O)CNC(=O)[C@H](CCCCNC(=O)CN2CCOCCN(CC(=O)O)CCN(CC(=O)O)CCOCCN(CC(=O)O)CC2)NC(=O)CNC(=O)CCCc2ccc([N+](=O)[O-])cc2)CC1)C(=O)O)C(=O)O` (stereo partly shown) [CCZ02034] reads 2.82 nM.
`COc1ccc(CCCC(=O)NCC(=O)N[C@@H](CCCCNC(=O)CN2CCN(CC(=O)O)CCN(CC(=O)O)CCN(CC(=O)O)CC2)C(=O)NCC2CCC(C(=O)N[C@@H](Cc3c4ccccc4cc4ccccc34)C(=O)NCCCC[C@H](NC(=O)N[C@@H](CCCC(=O)O)C(=O)O)C(=O)O)CC2)cc1` (stereo partly shown) [HTK03170, reference compound]: the dissociation constant Kd in experiment [2] was 70100 ± 3200 nM. For the same molecule, the Ki in experiment [1] turned out to be 1.53 ± 0.33 nM.
As to `COc1ccc(CCCC(=O)NCC(=O)N[C@@H](CCCCNC(=O)CN2CCN(CC(=O)O)CCN(CC(=O)O)CCN(CC(=O)O)CC2)C(=O)NCC(=O)NCC2CCC(C(=O)N[C@@H](Cc3c4ccccc4cc4ccccc34)C(=O)NCCCC[C@H](NC(=O)N[C@@H](CCCC(=O)O)C(=O)O)C(=O)O)CC2)cc1` (stereo partly shown) [CCZ02009] ({Butanoyl(4-(4-MeO-phenyl))}-GK(DOTA)G[X1][Ala(9-anthryl)]-{AadUreaLys(Nε)}), in experiment [2], the equilibrium dissociation constant (Kd) is 64900 ± 2200 nM. Also, the Ki in experiment [1] came to 0.12 ± 0.02 nM.
Turning to `O=C(O)CCC[C@H](NC(=O)N[C@@H](CCCCNC(=O)[C@H](Cc1c2ccccc2cc2ccccc12)NC(=O)C1CCC(NC(=O)CNC(=O)[C@H](CCCCNC(=O)CN2CCN(CC(=O)O)CCN(CC(=O)O)CCN(CC(=O)O)CC2)NC(=O)CNC(=O)CCCc2ccc([N+](=O)[O-])cc2)CC1)C(=O)O)C(=O)O` (stereo partly shown) [CCZ02021] ({Butanoyl(4-(4-NO2Ph))}-GK(DOTA)G[X3][Ala(9-anthryl)]-{AadUreaLys(Nε)}), in experiment [1], the inhibitory constant (Ki) is 5.71 nM.
Same read-out and setting: the result for `COc1ccc(CCCC(=O)NCC(=O)N[C@@H](CCCCNC(=O)CN2CCN(CC(=O)O)CCN(CC(=O)O)CCN(CC(=O)O)CC2)C(=O)NCC(=O)NCC(=O)NCC2CCC(C(=O)N[C@@H](Cc3c4ccccc4cc4ccccc34)C(=O)NCCCC[C@H](NC(=O)N[C@@H](CCCC(=O)O)C(=O)O)C(=O)O)CC2)cc1` (stereo partly shown) [CCZ02060] ({Butanoyl(4-(4-MeO-phenyl))}-GK(DOTA)GG[X1][Ala(9-anthryl)]-{AadUreaLys(Nε)}) reads 1.09 ± 0.19 nM.
The same measure, in the same setting: then `O=C(O)CC[C@H](NC(=O)N[C@@H](CCCCNC(=O)[C@H](Cc1c2ccccc2cc2ccccc12)NC(=O)C1CCC(CNC(=O)CNC(=O)[C@H](CCCCNC(=O)CN2CCN(CC(=O)O)CCN(CC(=O)O)CCN(CC(=O)O)CC2)NC(=O)CNC(=O)CCCc2ccc([N+](=O)[O-])cc2)CC1)C(=O)O)C(=O)O` (stereo partly shown) [CCZ02024] ({Butanoyl(4-(4-NO2Ph))}-GK(DOTA)G[X1][Ala(9-anthryl)]-EuK), with 1.54 nM; and `COc1ccc(CCCC(=O)NCC(=O)N[C@@H](CCCCNC(=O)CN2CCN(CC(=O)O)CCN(CC(=O)O)CCN(CC(=O)O)CC2)C(=O)NCC(=O)NCC(=O)NCC(=O)NCC(=O)NCC2CCC(C(=O)N[C@@H](Cc3c4ccccc4cc4ccccc34)C(=O)NCCCC[C@H](NC(=O)N[C@@H](CCCC(=O)O)C(=O)O)C(=O)O)CC2)cc1` (stereo partly shown) [CCZ02059] ({Butanoyl(4-(4-MeO-phenyl))}-GK(DOTA)GGGG[X1][Ala(9-anthryl)]-{AadUreaLys(Nε)}), with 10.8 ± 3.28 nM; and `O=C(O)CCC[C@H](NC(=O)N[C@@H](CCCCNC(=O)[C@H](Cc1c2ccccc2cc2ccccc12)NC(=O)C1CCC(NC(=O)CNC(=O)C[C@H](CCCCNC(=O)CN2CCN(CC(=O)O)CCN(CC(=O)O)CCN(CC(=O)O)CC2)NC(=O)CNC(=O)CCCc2ccc([N+](=O)[O-])cc2)CC1)C(=O)O)C(=O)O` (stereo partly shown) [CCZ02022], with 11.2 nM.
Still for that read-out and setting: then `COc1ccc(CCCC(=O)NCC(=O)N[C@@H](CCCCNC(=O)COCCOCCNC(=O)CN2CCN(CC(N)=O)CCN(CC(=O)O)CCN(CC(=O)O)CC2)C(=O)NCC2CCC(C(=O)N[C@@H](Cc3c4ccccc4cc4ccccc34)C(=O)NCCCC[C@H](NC(=O)N[C@@H](CCCC(=O)O)C(=O)O)C(=O)O)CC2)cc1` (stereo partly shown) [CCZ02005], with 2.08 nM.
With `O=C(O)CN1CCN(CC(=O)O)CCN(CC(=O)NCCCC[C@H](NC(=O)CNC(=O)CCCc2ccc([N+](=O)[O-])cc2)C(=O)NCC(=O)NCC2CCC(C(=O)N[C@@H](Cc3c4ccccc4cc4ccccc34)C(=O)NCCCC[C@H](NC(=O)N[C@@H](C[C@@H](F)C(=O)O)C(=O)O)C(=O)O)CC2)CCN(CC(=O)O)CC1` (stereo partly shown) [CCZ02025] ({Butanoyl(4-(4-NO2Ph))}-GK(DOTA)G[X1][Ala(9-anthryl)]-X4), in experiment [1], the Ki turned out to be 0.59 nM.

Source of the values: patent US20250186627A1, “RADIOLABELED COMPOUNDS TARGETING THE PROSTATE-SPECIFIC MEMBRANE ANTIGEN” (PROVINCIAL HEALTH SERVICES AUTHORITY, priority 2022, published 2025).
